Experimental data taken from ChEMBL document CHEMBL3885881, “DrugMatrix”.

Species on record: Rattus norvegicus
Experiment: DrugMatrix - Regimen: Daily Repeat
Format: toxicity, organism-based, Sprague-Dawley
Parameters: regimen Daily Repeat, gender Male, age 6-8 weeks
Details: in vivo, sc, route subcutaneous, […]; for ABSOLUTE BASOPHIL / ABSOLUTE EOSINOPHIL / ABSOLUTE LYMPHOCYTE / ABSOLUTE MONOCYTE / ABSOLUTE SEGMENTED NEUTROPHIL / BASOPHIL / EOSINOPHIL / ERYTHROCYTE COUNT / HEMATOCRIT / HEMOGLOBIN / LEUKOCYTE COUNT / LYMPHOCYTE / MEAN CORPUSCULAR HEMOGLOBIN / MEAN CORPUSCULAR HEMOGLOBIN CONCENTRATION / MEAN CORPUSCULAR VOLUME / MONOCYTE / NEUTROPHIL / NUCLEATED RED BLOOD CELLS / PLATELET COUNT: tissue Blood; for ALANINE AMINOTRANSFERASE / ALBUMIN / ALKALINE PHOSPHATASE / ASPARTATE AMINOTRANSFERASE / BLOOD UREA NITROGEN / CARBON DIOXIDE / CHLORIDE / CHOLESTEROL / CREATINE PHOSPHOKINASE / CREATININE / GLUCOSE / LACTATE DEHYDROGENASE / LIPASE / PHOSPHORUS / POTASSIUM / SODIUM / TOTAL BILIRUBIN / TOTAL PROTEIN / URIC ACID: tissue Plasma
[1] = 50 mg/kg, 120 h, dose level Low, time 5 day
[2] = 150 mg/kg, 72 h, dose level M2, time 3 day
[3] = 150 mg/kg, 120 h, dose level M2, time 5 day

CC(C)(c1ccc(O)cc1)c1ccc(O)cc1 [BISPHENOL A]
ABSOLUTE BASOPHIL [1]: 0 CELLS/uL
ABSOLUTE EOSINOPHIL [1]: 0 CELLS/uL
ABSOLUTE LYMPHOCYTE [1]: 15258.67 CELLS/uL
ABSOLUTE MONOCYTE [1]: 508.33 CELLS/uL
ABSOLUTE SEGMENTED NEUTROPHIL [1]: 1433 CELLS/uL
BASOPHIL [1]: 0%
EOSINOPHIL [1]: 0%
ERYTHROCYTE COUNT [1]: 5.65 x10E6/uL
HEMATOCRIT [1]: 35.13%
HEMOGLOBIN [1]: 13.73 G/DL
LEUKOCYTE COUNT [1]: 17.2 x10E3/uL
LYMPHOCYTE [1]: 89%
MEAN CORPUSCULAR HEMOGLOBIN [1]: 24.33 pg
MEAN CORPUSCULAR HEMOGLOBIN CONCENTRATION [1]: 39.07 G/DL
MEAN CORPUSCULAR VOLUME [1]: 62.23 fL
MONOCYTE [1]: 2.33%
NEUTROPHIL [1]: 8.67%
NUCLEATED RED BLOOD CELLS [1]: 0 /100WBC
PLATELET COUNT [1]: 1289 x10E3/uL
ALANINE AMINOTRANSFERASE [1]: 62.67 u/L
ALBUMIN [1]: 3.57 G/DL
ALKALINE PHOSPHATASE [1]: 300 u/L
ASPARTATE AMINOTRANSFERASE [1]: 93 u/L
BLOOD UREA NITROGEN [1]: 14.67 mg/dL
CARBON DIOXIDE [1]: 24 mmol/L
CHLORIDE [1]: 103.67 MEQ/L
CHOLESTEROL [1]: 48.67 mg/dL
CREATINE PHOSPHOKINASE [1]: 675.67 u/L
CREATININE [1]: 0.15 mg/dL
GLUCOSE [1]: 190.67 mg/dL
LACTATE DEHYDROGENASE [1]: 256.67 u/L
LIPASE [1]: 11.67 u/L
PHOSPHORUS [1]: 13.4 mg/dL
POTASSIUM [1]: 6.14 MEQ/L
SODIUM [1]: 142.27 MEQ/L
TOTAL BILIRUBIN [1]: 0.1 mg/dL
TOTAL PROTEIN [1]: 5.27 G/DL
URIC ACID [1]: 2.23 mg/dL
ABSOLUTE BASOPHIL [2]: 0 CELLS/uL
ABSOLUTE EOSINOPHIL [2]: 21 CELLS/uL
ABSOLUTE LYMPHOCYTE [2]: 7705 CELLS/uL
ABSOLUTE MONOCYTE [2]: 0 CELLS/uL
ABSOLUTE SEGMENTED NEUTROPHIL [2]: 574 CELLS/uL
BASOPHIL [2]: 0%
EOSINOPHIL [2]: 0.33%
ERYTHROCYTE COUNT [2]: 5.46 x10E6/uL
HEMATOCRIT [2]: 34.77%
HEMOGLOBIN [2]: 13.53 G/DL
LEUKOCYTE COUNT [2]: 8.3 x10E3/uL
LYMPHOCYTE [2]: 92.33%
MEAN CORPUSCULAR HEMOGLOBIN [2]: 24.8 pg
MEAN CORPUSCULAR HEMOGLOBIN CONCENTRATION [2]: 38.97 G/DL
MEAN CORPUSCULAR VOLUME [2]: 63.67 fL
MONOCYTE [2]: 0%
NEUTROPHIL [2]: 7.33%
NUCLEATED RED BLOOD CELLS [2]: 0 /100WBC
PLATELET COUNT [2]: 1030 x10E3/uL
ALANINE AMINOTRANSFERASE [2]: 54.67 u/L
ALBUMIN [2]: 3.73 G/DL
ALKALINE PHOSPHATASE [2]: 286.67 u/L
ASPARTATE AMINOTRANSFERASE [2]: 73 u/L
BLOOD UREA NITROGEN [2]: 9.33 mg/dL
CARBON DIOXIDE [2]: 21 mmol/L
CHLORIDE [2]: 96 MEQ/L
CHOLESTEROL [2]: 72.67 mg/dL
CREATINE PHOSPHOKINASE [2]: 254.33 u/L
CREATININE [2]: 0.11 mg/dL
GLUCOSE [2]: 143 mg/dL
LACTATE DEHYDROGENASE [2]: 106.33 u/L
LIPASE [2]: 8 u/L
PHOSPHORUS [2]: 11.83 mg/dL
POTASSIUM [2]: 5.68 MEQ/L
SODIUM [2]: 141.4 MEQ/L
TOTAL BILIRUBIN [2]: 0.1 mg/dL
TOTAL PROTEIN [2]: 5.57 G/DL
URIC ACID [2]: 0.53 mg/dL
ABSOLUTE BASOPHIL [3]: 0 CELLS/uL
ABSOLUTE EOSINOPHIL [3]: 91.33 CELLS/uL
ABSOLUTE LYMPHOCYTE [3]: 12830 CELLS/uL
ABSOLUTE MONOCYTE [3]: 122 CELLS/uL
ABSOLUTE SEGMENTED NEUTROPHIL [3]: 2190 CELLS/uL
BASOPHIL [3]: 0%
EOSINOPHIL [3]: 0.67%
ERYTHROCYTE COUNT [3]: 5.93 x10E6/uL
HEMATOCRIT [3]: 36.47%
HEMOGLOBIN [3]: 14.23 G/DL
LEUKOCYTE COUNT [3]: 15.23 x10E3/uL
LYMPHOCYTE [3]: 85%
MEAN CORPUSCULAR HEMOGLOBIN [3]: 24.1 pg
MEAN CORPUSCULAR HEMOGLOBIN CONCENTRATION [3]: 39.03 G/DL
MEAN CORPUSCULAR VOLUME [3]: 61.63 fL
MONOCYTE [3]: 0.67%
NEUTROPHIL [3]: 13.67%
NUCLEATED RED BLOOD CELLS [3]: 0.33 /100WBC
PLATELET COUNT [3]: 1323.33 x10E3/uL
ALANINE AMINOTRANSFERASE [3]: 59 u/L
ALBUMIN [3]: 3.77 G/DL
ALKALINE PHOSPHATASE [3]: 246.33 u/L
ASPARTATE AMINOTRANSFERASE [3]: 81.67 u/L
BLOOD UREA NITROGEN [3]: 13.33 mg/dL
CARBON DIOXIDE [3]: 25.67 mmol/L
CHLORIDE [3]: 102.67 MEQ/L
CHOLESTEROL [3]: 61.67 mg/dL
CREATINE PHOSPHOKINASE [3]: 253 u/L
CREATININE [3]: 0.21 mg/dL
GLUCOSE [3]: 193 mg/dL
LACTATE DEHYDROGENASE [3]: 151.67 u/L
LIPASE [3]: 10 u/L
PHOSPHORUS [3]: 13.27 mg/dL
POTASSIUM [3]: 5.91 MEQ/L
SODIUM [3]: 142.47 MEQ/L
TOTAL BILIRUBIN [3]: 0.13 mg/dL
TOTAL PROTEIN [3]: 5.57 G/DL
URIC ACID [3]: 2.37 mg/dL
